IC50 and efflux ratio data for 18 molecules are collected here from patent US20240190854A1, “PYRIMIDINE OR PYRIDINE DERIVATIVES USEFUL AS HCN2 MODULATORS” (King's College London, priority 2021, published 2024).

Broadly, the IC50 is the concentration that gives 50% inhibition. The efflux ratio is the permeability from basolateral to apical divided by that in the opposite direction, in the common usage.

Counter-ions that a name gives are not always drawn. Like-named read-outs stand apart in the source and are kept apart here.

In data set [1] the target is T1, HCN2 (Homo sapiens (Human), UniProt Q9UL51). Briefly: HCN2 current assay using the Sophion Qube. The settings on record: Sophion Qube protocol; read-out: SQ HCN2 IC50. The data set is classed as cell-based. Here is the method: (§1) Example 126B, Using the Sophion Qube
T1 sequence (Q9UL51 whole entry): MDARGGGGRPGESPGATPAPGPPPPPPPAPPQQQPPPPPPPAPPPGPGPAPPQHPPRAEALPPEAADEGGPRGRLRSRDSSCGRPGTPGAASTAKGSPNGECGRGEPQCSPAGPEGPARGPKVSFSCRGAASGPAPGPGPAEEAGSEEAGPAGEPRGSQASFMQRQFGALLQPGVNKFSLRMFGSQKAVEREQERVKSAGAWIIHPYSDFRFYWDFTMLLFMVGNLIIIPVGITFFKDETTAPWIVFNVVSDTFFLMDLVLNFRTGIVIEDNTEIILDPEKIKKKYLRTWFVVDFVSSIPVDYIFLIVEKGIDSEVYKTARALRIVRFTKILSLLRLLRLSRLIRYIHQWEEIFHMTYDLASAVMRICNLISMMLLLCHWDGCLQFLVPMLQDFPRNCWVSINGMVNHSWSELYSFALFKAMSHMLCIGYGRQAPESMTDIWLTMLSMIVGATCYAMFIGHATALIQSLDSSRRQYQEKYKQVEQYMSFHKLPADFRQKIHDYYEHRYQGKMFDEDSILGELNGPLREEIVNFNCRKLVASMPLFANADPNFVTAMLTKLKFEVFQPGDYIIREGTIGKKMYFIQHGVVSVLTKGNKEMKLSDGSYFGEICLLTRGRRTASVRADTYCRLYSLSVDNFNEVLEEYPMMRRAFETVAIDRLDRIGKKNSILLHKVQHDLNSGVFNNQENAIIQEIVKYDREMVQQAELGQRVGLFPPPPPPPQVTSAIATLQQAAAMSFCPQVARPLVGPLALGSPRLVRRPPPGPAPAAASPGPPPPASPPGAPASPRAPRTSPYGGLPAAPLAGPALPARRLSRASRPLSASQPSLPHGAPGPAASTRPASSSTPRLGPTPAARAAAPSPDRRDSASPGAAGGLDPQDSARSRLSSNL
(§2) Solutions for recording HCN currents were:
(§3) This voltage protocol was applied every 20 seconds for the duration of the experiment. Both the vehicle (0.3% DMSO) and full block (3 mM CsCl) addition periods were applied for 10 experimental sweeps each.
(§4) The current amplitudes were measured by subtracting metric A from metric B (see FIG. 2) with inhibition calculated by normalising to the vehicle addition (0.3% DMSO) and full inhibition by 3 mM CsCl in the same well.
(§5) In total, compound was applied to the well for 600 seconds.

The target of data set [2] is T2, HCN4 (Homo sapiens (Human), UniProt Q9Y3Q4). Briefly: HCN4 current assay using the Sophion Qube. The data set is classed as cell-based. The settings on record: Sophion Qube protocol; read-out: SQ HCN4 IC50. Here is the method:
as §1, §2, §3, §4, §5

The target in data set [3] is T3, hERG channel (Homo sapiens (Human), UniProt Q12809). Briefly: hERG assay using Sophion Qube. The data set is classed as cell-based. The following applies: Sophion Qube protocol; read-out: SQ hERG IC50. How it is done:
Example 127B, Using Sophion Qube
Solutions for recording hERG currents were:
This voltage protocol was applied every 15 seconds for the duration of the experiment. Both the vehicle and 1st compound addition periods were applied for 10 sweeps. The 2nd compound addition period was applied for 20 sweeps. The compound concentration was added to the test well twice to assure complete exchange of the external buffer with the test compound. In total, compound was applied to the well for 450 seconds.
(hERG is a cardiac potassium channel; its block is linked to QT prolongation.)

In data set [4] the target is T4, hNav1.5 (Homo sapiens (Human), UniProt Q14524).
T4 sequence (Q14524 whole entry): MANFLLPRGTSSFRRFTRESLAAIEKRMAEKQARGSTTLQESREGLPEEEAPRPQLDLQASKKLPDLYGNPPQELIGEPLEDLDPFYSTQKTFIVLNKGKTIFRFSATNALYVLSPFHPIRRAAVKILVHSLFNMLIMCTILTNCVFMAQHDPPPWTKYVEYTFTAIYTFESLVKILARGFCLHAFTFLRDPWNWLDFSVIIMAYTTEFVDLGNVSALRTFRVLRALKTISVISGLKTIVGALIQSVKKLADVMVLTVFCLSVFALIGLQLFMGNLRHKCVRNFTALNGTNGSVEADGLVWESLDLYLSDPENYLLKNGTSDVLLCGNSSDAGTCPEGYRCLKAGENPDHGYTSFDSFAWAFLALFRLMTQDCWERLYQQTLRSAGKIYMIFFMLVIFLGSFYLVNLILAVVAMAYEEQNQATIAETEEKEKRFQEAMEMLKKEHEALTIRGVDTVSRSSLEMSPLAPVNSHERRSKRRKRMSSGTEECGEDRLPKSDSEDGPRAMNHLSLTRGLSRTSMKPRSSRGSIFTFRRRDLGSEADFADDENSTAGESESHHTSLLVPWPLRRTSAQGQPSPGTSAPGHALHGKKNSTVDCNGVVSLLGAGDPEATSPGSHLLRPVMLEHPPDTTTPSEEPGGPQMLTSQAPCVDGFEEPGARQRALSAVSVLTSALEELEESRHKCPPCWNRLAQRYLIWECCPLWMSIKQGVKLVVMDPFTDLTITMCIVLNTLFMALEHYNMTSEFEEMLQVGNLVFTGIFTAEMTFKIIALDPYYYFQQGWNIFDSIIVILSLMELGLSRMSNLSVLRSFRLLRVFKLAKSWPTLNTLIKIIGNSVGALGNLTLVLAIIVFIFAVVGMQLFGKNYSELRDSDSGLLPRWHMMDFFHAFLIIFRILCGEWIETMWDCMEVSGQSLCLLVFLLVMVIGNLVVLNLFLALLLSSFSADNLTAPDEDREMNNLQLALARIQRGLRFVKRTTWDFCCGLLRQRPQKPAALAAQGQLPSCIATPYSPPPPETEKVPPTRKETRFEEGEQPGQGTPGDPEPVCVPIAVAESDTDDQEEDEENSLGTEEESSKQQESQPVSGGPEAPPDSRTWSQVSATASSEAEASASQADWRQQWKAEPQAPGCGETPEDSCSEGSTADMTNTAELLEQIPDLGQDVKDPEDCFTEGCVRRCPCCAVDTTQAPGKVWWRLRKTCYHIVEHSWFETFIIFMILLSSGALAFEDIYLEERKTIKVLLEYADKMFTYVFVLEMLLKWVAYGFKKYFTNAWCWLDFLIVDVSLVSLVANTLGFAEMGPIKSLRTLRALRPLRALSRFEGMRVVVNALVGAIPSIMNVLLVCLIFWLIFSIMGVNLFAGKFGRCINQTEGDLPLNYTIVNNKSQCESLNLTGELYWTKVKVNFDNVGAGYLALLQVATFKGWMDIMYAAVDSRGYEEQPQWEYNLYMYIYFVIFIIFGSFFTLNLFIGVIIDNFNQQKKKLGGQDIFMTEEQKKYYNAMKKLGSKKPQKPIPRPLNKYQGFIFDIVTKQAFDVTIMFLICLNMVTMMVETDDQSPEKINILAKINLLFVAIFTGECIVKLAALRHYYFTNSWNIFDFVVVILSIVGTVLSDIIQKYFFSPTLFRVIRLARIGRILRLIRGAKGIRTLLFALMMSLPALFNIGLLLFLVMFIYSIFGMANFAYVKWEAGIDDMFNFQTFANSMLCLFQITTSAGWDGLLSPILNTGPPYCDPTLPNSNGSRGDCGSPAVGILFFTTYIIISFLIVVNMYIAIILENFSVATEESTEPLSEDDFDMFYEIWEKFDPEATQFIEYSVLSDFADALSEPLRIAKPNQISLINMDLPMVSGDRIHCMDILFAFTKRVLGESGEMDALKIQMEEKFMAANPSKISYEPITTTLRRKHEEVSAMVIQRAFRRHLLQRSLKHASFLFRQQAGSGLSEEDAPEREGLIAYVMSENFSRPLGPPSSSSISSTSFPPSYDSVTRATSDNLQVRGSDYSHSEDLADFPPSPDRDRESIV
Protocol: The cells were held at −100 mV followed by a depolarising step to −10 mV for 100 milliseconds before stepping back to −100 mV, this represents 1 experimental sweep.
For tonic block (0.1 Hz), the peak currents evoked by the step to −10 mV were measured for the analysis of the percentage inhibition by test compounds. For use-dependent block (4 Hz), the peak current evoked at the 20th depolarising step to −10 mV was measured for the analysis of the percentage inhibition by test compounds. Peak currents were first normalised to the vehicle addition (0.3% DMSO) in the same well.
Another data set addresses MDR1 (P-glycoprotein) (Homo sapiens (Human), UniProt P08183). Briefly: in vitro. The following applies: dog, MDCK-MDR1, pH 7.4.
Data set [5] has as its target T5, HCN1 (Homo sapiens (Human), UniProt O60741). Description: HCN1 current assay using the Sophion Qube. The settings on record: Sophion Qube protocol; read-out: SQ HCN1 IC50. The format is cell-based. How it is done:
as §1, §2, §3, §4, §5

Data set [6] concerns the target T1, HCN2. Briefly: HCN2 current assay using PatchXpress 7000A. The data set is classed as cell-based. The following applies: PatchXpress protocol; read-out: PX HCN2 IC50. In a few lines:
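Automated patch clamp (PatchXpress 7000A) at about 22° C. HCN current taken as leak-subtracted peak inward current at the end of a step to −110 mV, with a return to −30 mV for 8 seconds. Cumulative concentrations applied 7 minutes each; amplitude normalised to control.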

The target in data set [7] is T2, HCN4. Briefly: HCN4 current assay using PatchXpress 7000A. The data set is classed as cell-based. The settings on record: PatchXpress protocol; read-out: PX HCN4 IC50. In a few lines:
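Peak inward current taken at end of a −130 mV pulse, leak-subtracted, and normalized to the control amplitude. Cumulative concentrations applied for 7 min each at room temperature (approximately 22° C.) on an automated patch-clamp platform.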

Data set [8] deals with T5, HCN1. Description: HCN1 current assay using PatchXpress 7000A. The format is cell-based. The following applies: PatchXpress protocol; read-out: PX HCN1 IC50. Here is the method: Example 126A, Using PatchXpress 7000A
as §2
The membrane voltage was then stepped back to −30 mV for a further 8 seconds.
The peak inward current measured at the end of the pulse to −110 mV (HCN1 and HCN2) or −130 mV (HCN4) was measured and any leak current subtracted to calculate the HCN current. The HCN current amplitude was measured after each control or compound addition and normalized to the control amplitude (Control A).
All experiments were performed at room temperature (approximately 22° C.).
Each test compound concentration was applied to the cell for seven (7) minutes, at which point the next cumulative concentration was applied.

The target of data set [9] is T3, hERG channel. Briefly: hERG assay using IonWorks Quattro. The data set is classed as cell-based. The settings on record: IonWorks protocol; read-out: IW hERG IC50.
Data set [10] has as its target T4, hNav1.5. The source holds these as a separate data set.
Protocol: Solutions for recording Nav1.5 currents were:
Electrophysiological recordings were made from a human embryonic kidney (HEK) cell line stably expressing the full length hNav1.5. Population patch clamp measurements were made in the perforated patch clamp configuration (100 μg ml^−1 amphotericin) at room temperature (approx. 22° C.) using an IonWorks Quattro from Molecular Devices. […] Currents were first measured under control (pre-compound addition) conditions. […] Currents were measured from the depolarising step at the 15th pulse and referenced to the holding current.

T5 sequence (O60741 whole entry, species assumed): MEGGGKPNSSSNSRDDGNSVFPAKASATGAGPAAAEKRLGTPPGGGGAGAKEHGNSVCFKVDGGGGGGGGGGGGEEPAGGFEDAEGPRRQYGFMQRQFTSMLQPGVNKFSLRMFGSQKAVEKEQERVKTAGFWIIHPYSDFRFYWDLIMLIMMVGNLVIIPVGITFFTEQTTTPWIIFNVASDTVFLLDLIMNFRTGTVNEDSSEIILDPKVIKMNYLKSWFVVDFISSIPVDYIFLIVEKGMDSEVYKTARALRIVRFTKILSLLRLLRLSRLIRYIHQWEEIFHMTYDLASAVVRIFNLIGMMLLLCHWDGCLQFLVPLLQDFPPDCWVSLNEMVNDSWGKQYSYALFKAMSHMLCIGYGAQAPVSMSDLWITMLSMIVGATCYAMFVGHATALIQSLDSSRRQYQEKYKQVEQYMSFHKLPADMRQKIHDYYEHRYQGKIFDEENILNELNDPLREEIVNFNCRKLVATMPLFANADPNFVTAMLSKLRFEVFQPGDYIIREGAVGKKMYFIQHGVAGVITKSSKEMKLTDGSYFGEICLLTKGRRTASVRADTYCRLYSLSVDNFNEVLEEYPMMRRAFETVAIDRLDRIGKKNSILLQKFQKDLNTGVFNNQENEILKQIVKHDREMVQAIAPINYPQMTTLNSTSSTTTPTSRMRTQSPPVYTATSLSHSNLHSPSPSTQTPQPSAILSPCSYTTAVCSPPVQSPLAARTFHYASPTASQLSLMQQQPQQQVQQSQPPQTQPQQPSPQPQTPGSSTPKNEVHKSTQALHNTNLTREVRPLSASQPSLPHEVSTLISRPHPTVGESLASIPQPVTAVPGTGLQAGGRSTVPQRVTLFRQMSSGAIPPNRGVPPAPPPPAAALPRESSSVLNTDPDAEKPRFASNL
T2 sequence (Q9Y3Q4 whole entry, species assumed): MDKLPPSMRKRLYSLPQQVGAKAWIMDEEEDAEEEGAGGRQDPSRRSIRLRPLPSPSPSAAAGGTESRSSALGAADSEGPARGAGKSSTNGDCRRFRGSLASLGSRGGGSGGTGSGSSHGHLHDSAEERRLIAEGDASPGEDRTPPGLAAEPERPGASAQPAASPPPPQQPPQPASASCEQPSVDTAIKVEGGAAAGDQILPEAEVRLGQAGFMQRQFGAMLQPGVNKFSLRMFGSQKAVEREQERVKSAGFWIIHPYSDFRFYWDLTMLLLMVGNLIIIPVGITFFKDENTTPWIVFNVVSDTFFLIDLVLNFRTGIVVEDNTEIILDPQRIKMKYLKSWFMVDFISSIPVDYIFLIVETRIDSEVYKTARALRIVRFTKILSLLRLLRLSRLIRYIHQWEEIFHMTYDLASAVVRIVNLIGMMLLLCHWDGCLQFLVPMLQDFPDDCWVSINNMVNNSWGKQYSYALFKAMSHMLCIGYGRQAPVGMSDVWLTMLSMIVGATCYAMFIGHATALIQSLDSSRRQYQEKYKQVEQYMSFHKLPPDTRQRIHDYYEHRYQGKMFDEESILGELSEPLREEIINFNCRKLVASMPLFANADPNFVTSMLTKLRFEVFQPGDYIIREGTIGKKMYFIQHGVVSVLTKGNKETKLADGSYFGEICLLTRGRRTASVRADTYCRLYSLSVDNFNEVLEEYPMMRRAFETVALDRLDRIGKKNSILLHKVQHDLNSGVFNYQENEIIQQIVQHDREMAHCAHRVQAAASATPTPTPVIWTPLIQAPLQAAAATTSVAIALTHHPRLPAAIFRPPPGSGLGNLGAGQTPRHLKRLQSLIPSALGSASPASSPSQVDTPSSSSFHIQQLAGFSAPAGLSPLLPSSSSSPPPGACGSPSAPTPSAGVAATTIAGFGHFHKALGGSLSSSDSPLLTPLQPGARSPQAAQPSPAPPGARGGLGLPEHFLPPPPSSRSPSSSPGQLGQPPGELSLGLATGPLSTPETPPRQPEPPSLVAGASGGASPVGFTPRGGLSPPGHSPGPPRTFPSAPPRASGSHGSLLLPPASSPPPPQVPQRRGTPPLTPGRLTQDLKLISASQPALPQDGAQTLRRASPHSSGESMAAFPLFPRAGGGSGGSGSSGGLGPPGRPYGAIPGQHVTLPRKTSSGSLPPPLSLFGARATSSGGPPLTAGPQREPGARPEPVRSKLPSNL
Protocol for MDR1 (P-glycoprotein): Test compounds were added (10 μM, 0.1% DMSO final, n=2) to donor compartments of the Transwell plate assembly in assay buffer (Hanks balanced salt solution supplemented with 25 mM HEPES, adjusted to pH 7.4) for both apical to basolateral (A>B) and basolateral to apical (B>A) measurements. A parallel series of incubations were performed in the presence of the transporter inhibitor elacridar (5 μM) which was added to both compartments in the transwell plate. Incubations were performed at 37° C., with samples removed from both donor and acceptor chambers at T=0 and 1 hour for recovery assessment and compound analysed by mass spectrometry (LC-MS/MS), including an analytical internal standard.
Apparent permeability (Papp) values were determined from the relationship:
Where V is the volume of each Transwell compartment (apical 125 μL, basolateral 600 μL), and concentrations are the relative MS responses for compound (normalized to internal standard) in the donor chamber before incubation and acceptor chamber at the end of the incubation.
Area=area of cells exposed for drug transfer (0.33 cm2).
Efflux ratios (Papp B>A/Papp A>B) were calculated for each compound from the mean Papp values in each direction. […] The efflux ratios were also calculated in the same way from the runs carried out in the presence of the inhibitor. The net flux is the ratio of the efflux in the absence of inhibitor to that in the presence of inhibitor.
Lucifer Yellow (LY) was added to the apical buffer in all wells to assess viability of the cell layer.
Compound recovery from the wells was determined from MS responses (normalized to internal standard) in donor and acceptor chambers at the end of incubation compared to response in the donor chamber pre-incubation.

With `CS(=O)(=O)c1ccc(F)c(C[C@H](N)c2ccccc2-c2noc3cc(C(F)(F)F)ccc23)n1` [Example 10, (S)-2-(3-Fluoro-6-methylsulfonylpyridine-2-yl)-1-[2-(6-trifluoromethylbenzo[d]isoxazol-3-yl)phenyl]ethan-1-amine hydrochloride], the IC50 on HCN2 [1] was 17.2 µM.
On to `Cc1ccc2c(-c3ccccc3[C@@H](N)Cc3nc(S(C)(=O)=O)ccc3F)noc2c1` [Example 11, (S)-2-(3-Fluoro-6-methylsulfonylpyridine-2-yl)-1-[2-(6-methylbenzo[d]isoxazol-3-yl)phenyl]ethan-1-amine hydrochloride], for which the IC50 turned out to be 3.2 µM on HCN2 [1], 30 µM on HCN4 [2], 4.7 µM on hERG channel [3] and 21.4 µM against hNav1.5 [4]. The efflux ratio at 1 h, 10 μM on MDR1 (P-glycoprotein) is 5.2.
Take `CS(=O)(=O)c1ccc(F)c(C[C@H](N)c2ccccc2-c2noc3cc(Cl)ccc23)n1` [Example 13, (S)-1-[2-(6-Chlorobenzo[d]isoxazol-3-yl)phenyl]-2-(3-fluoro-6-methylsulfonylpyridine-2-yl)ethan-1-amine hydrochloride]: the IC50 on HCN2 [1] was 2.6 µM; at HCN4 [2] it was over 30 µM; on HCN1 [5] it was 3.2 µM; on hERG channel [3], 1.4 µM; on hNav1.5 [4], 15.1 µM. At MDR1 (P-glycoprotein), the efflux ratio at 1 h, 10 μM amounted to 6.2.
For the molecule `N[C@@H](Cc1nc(Br)ccc1F)c1ccccc1-c1noc2cc(F)ccc12` [Example 15, (S)-2-(6-Bromo-3-fluoropyridine-2-yl)-1-[2-(6-fluorobenzo[d]isoxazol-3-yl)phenyl]-ethan-1-amine hydrochloride], the values for the IC50 on HCN2 [1] and at HCN1 [5] were 1.2 µM and 5.1 µM, respectively.
For the molecule `N[C@@H](Cc1nc(Br)ccc1F)c1ccccc1-c1noc2cc(Br)ccc12` [Example 16, (S)-2-(6-Bromo-3-fluoropyridine-2-yl)-1-[2-(6-bromobenzo[d]isoxazol-3-yl)phenyl]-ethan-1-amine], the IC50 on HCN2 [1] worked out at 2 µM; on HCN1 [5], 3 µM.
`N#Cc1ccc2c(-c3ccccc3[C@@H](N)Cc3nc(Br)ccc3F)noc2c1` [Example 17, (S)-2-(6-Bromo-3-fluoropyridine-2-yl)-1-[2-(6-cyanobenzo[d]isoxazol-3-yl)phenyl]-ethan-1-amine hydrochloride]: the IC50 on HCN2 [1] worked out at 5.8 µM; at hERG channel [3], 3.1 µM.
Consider `Cc1ccc2c(-c3ccccc3[C@@H](N)Cc3nc(S(C)(=O)=O)ccc3C)noc2c1` [Example 19, (S)-2-(3-Methyl-6-methylsulfonylpyridin-2-yl)-1-[2-(6-methylbenzo[d]isoxazol-3-yl)phenyl]ethan-1-amine hydrochloride], for which the half-inhibitory concentration (IC50) worked out at 1.4 µM at HCN2 [1]; 13.1 µM on HCN4 [2]; 2.9 µM on HCN1 [5]; 1.3 µM at hERG channel [3]; 11.5 µM against hNav1.5 [4]. For the same molecule, the efflux ratio at 1 h, 10 μM at MDR1 (P-glycoprotein) stood at 12.4.
For the molecule `CS(=O)(=O)c1ccc(F)c(C[C@H](N)c2ccccc2-c2noc3cc(F)ccc23)n1` [Example 20, (S)-2-(3-Fluoro-6-methylsulfonylpyridin-2-yl)-1-[2-(6-fluorobenzo[d]isoxazol-3-yl)phenyl]ethan-1-amine hydrochloride], the IC50 at HCN2 [1] was 3.1 µM; at HCN4 [2] it was over 30 µM; on HCN1 [5] it was 16.9 µM; at hERG channel [3], 2.9 µM; at hNav1.5 [4] it was 28.1 µM. For the same molecule, the efflux ratio at 1 h, 10 μM on MDR1 (P-glycoprotein) turned out to be 6.2.
With `CS(=O)(=O)c1ccc(F)c(C[C@H](N)c2ccccc2-c2noc3cc(Br)ccc23)n1` [Example 21, (S)-1-[2-(6-Bromobenzo[d]isoxazol-3-yl)phenyl]-2-(3-Fluoro-6-methylsulfonylpyridin-yl)ethan-1-amine hydrochloride], the IC50 is 2.5 µM on HCN2 [1] and 5.3 µM on HCN1 [5].
As to `CS(=O)(=O)c1ccc(F)c(C[C@H](N)c2ccccc2-c2noc3ccc(F)cc23)n1` [Example 22, (S)-1-[2-(5-Fluorobenzo[d]isoxazol-3-yl)phenyl]-2-(3-fluoro-6-methylsulfonylpyridin-2-yl)ethan-1-amine hydrochloride], the IC50 was determined as 20.8 µM at HCN4 [2], 27.4 µM at HCN1 [5], 5.7 µM on hERG channel [3] and 24.1 µM on hNav1.5 [4].
For `Cc1ccc(S(C)(=O)=O)nc1C[C@H](N)c1ccccc1-c1noc2cc(Cl)ccc12` [Example 23, (S)-1-[2-(6-Chlorobenzo[d]isoxazol-3-yl)phenyl]-2-(3-methyl-6-methylsulfonylpyridin-2-yl)ethan-1-amine hydrochloride], the IC50 on HCN2 [1] amounted to 1.7 µM; at hERG channel [3], 1.2 µM; at hNav1.5 [4], 13.9 µM.
As for `Cc1ccc(S(C)(=O)=O)nc1C[C@H](N)c1ccccc1-c1noc2cc(F)ccc12` [Example 24, (S)-1-[2-(6-Fluorobenzo[d]isoxazol-3-yl)phenyl]-2-(3-methyl-6-methylsulfonylpyridin-2-yl)ethan-1-amine hydrochloride], the half-inhibitory concentration (IC50) at HCN2 [1] amounted to 1.3 µM; on HCN4 [2], 7.8 µM; at HCN1 [5] it was 4.2 µM; on hERG channel [3] it was 3.4 µM; against hNav1.5 [4], 22.4 µM. The efflux ratio at 1 h, 10 μM at MDR1 (P-glycoprotein) was 10.4.
In the case of `CC(C)S(=O)(=O)c1ccc(F)c(C[C@H](N)c2ccccc2-c2noc3cc(Cl)ccc23)n1` [Example 25, (S)-1-[2-(6-Chlorobenzo[d]isoxazol-3-yl)phenyl]-2-(3-fluoro-6-isopropyisulfonylpyridin-2-yl)ethan-1-amine hydrochloride], on HCN2 [1], the IC50 was over 30 µM.
Turning to `N#Cc1ccc(F)c(C[C@H](N)c2ccccc2-c2noc3cc(Br)ccc23)n1` [Example 27, (S)-2-{2-Amino-2-[2-(6-bromobenzo[d]isoxazol-3-yl)phenyl]ethyl}-3-fluoropyridine-6-carbonitrile], the IC50 on HCN2 [1] worked out at 1.4 µM.
As for `Cc1ccc(C#N)nc1C[C@H](N)c1ccccc1-c1noc2cc(Br)ccc12` [Example 28, (S)-2-{2-Amino-2-[2-(6-bromobenzo[d]isoxazol-3-yl)phenyl]ethyl}-3-methylpyridine-6-carbonitrile], on HCN2 [1], the IC50 came to 1 µM.
For `NC(=O)c1ccc(F)c(C[C@H](N)c2ccccc2-c2noc3ccccc23)n1` [Example 72, (S)-6-{2-Amino-2-[2-(benzo[d]isoxazol-3-yl)phenyl]ethyl}-5-fluoropyridine-2-carboxamide formate], the IC50 was determined as 1.2 µM on HCN2 [6]; 10.3 µM on HCN4 [7]; 1 µM on HCN1 [8]; 20.9 µM at hERG channel [9]; 18.6 µM on hNav1.5 [10]. In addition, the efflux ratio at 1 h, 10 μM at MDR1 (P-glycoprotein) is 11.3.
Turning to `CN(C)C(=O)c1ccc(F)c(C[C@H](N)c2ccccc2-c2noc3ccccc23)n1` [Example 74, (S)-6-{2-Amino-2-[2-(benzo[d]isoxazol-3-yl)phenyl]ethyl}-5-fluoro-N,N-dimethylpyridin-2-carboxamide hydrochloride], the IC50 at HCN2 [6] came to 1.8 µM; at HCN4 [7] it was 20.9 µM; on HCN1 [8] it was 4.6 µM; at hERG channel [9] it was 9.9 µM; against hNav1.5 [10] it was 11.4 µM. In addition, the efflux ratio at 1 h, 10 μM at MDR1 (P-glycoprotein) stood at 16.7.
As to `N#Cc1cccc(C[C@H](N)c2ccccc2-c2noc3ccccc23)n1` [Example 116, (S)-1-[2-(Benzo[d]isoxazol-3-yl)phenyl]-2-(6-cyanopyridine-2-yl)ethan-1-amine hydrochloride], the IC50 on HCN2 [6] was 0.7 µM; on HCN4 [7] it was 13.5 µM; at HCN1 [8] it was 3.4 µM; at hERG channel [9] it was 10.3 µM; against hNav1.5 [10], 11.1 µM. Further, the efflux ratio at 1 h, 10 μM at MDR1 (P-glycoprotein) worked out at 1.1.
